Experimental data published in patent US8551964B2, “Hsp90 inhibitors with modified toxicity” (The Regents of the University of Colorado, priority 2007, dated 2013).
One block for each molecule: values may come before it.

What was measured:
[1] = cited from earlier work; for hepatotoxicity rank within the BA series: series GM, 17AAG, 17DMAG, 17AG, 17AEP-GA
[2] = Interaction of BA Hsp90 inhibitors with reduced glutathione (HPLC, LC-MS, [3H] glutathione)
Description: GM-glutathione conjugate formation was analyzed by HPLC and LC-MS. Briefly, 50 μM GM, 500 μM NADH, and 5 mM glutathione in the absence and presence of 11.8 μg rh-NQO1 and in the absence or presence of 2 μM ES936, were incubated in 50 mM potassium phosphate buffer, pH 7.4 (1 ml) at room temperature for 5 min. GM-glutathione conjugate formation was analyzed by HPLC at 270 nm (5 min).
Reaction conditions were: 50 μM 17DMAG, 500 μM NADH, and 5 mM glutathione, in the absence and presence of 11.8 μg rhNQO1 and in the absence or presence of 2 μM ES936, were incubated in 50 mM potassium phosphate buffer, pH 7.4 (1 ml) at room temperature for 3 h. 17DMAG-glutathione conjugate formation was analyzed by HPLC at 270 nm (3 h).
Reaction conditions were: 50 μM BA and 5 mM GSH were incubated in 50 mM potassium phosphate buffer, pH 7.4 (1 ml) at room temperature in the absence and presence of 11.8 μg of rhNQO1 and 500 μM NADH. BA-GSH conjugate formation was analyzed by HPLC at 270 nm and further confirmed by LC-MS. The amount of BA glutathione conjugate formation was quantified using [3H] glutathione.

[3] = target: T1, purified human cytochrome P450 reductase (Homo sapiens, UniProt P16435); assay: Redox cycling catalyzed by purified human cytochrome P450 reductase; assay type: biochemical
T1 sequence (P16435 1-677): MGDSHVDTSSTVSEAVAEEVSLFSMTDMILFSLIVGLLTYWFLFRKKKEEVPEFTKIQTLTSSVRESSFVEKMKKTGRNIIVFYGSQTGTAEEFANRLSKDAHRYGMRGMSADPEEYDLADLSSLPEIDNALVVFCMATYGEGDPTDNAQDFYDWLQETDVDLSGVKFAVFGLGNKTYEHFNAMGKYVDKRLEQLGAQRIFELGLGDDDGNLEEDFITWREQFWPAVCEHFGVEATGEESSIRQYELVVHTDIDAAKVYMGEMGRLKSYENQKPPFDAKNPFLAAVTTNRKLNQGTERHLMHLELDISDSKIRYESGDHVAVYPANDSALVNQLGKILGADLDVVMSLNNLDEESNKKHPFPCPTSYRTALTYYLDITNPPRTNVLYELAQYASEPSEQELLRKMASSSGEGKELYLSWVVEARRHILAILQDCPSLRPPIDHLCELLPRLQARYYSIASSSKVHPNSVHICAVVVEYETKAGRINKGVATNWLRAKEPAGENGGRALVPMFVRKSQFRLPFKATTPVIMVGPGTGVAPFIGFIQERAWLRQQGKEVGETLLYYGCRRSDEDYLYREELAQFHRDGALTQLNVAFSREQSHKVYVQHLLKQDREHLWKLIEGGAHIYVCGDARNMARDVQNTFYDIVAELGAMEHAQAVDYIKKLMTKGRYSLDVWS

[4] = target: T2, NADPH-cytochrome P450 reductase (mouse liver microsomes) (Mus musculus, UniProt P37040); assay: One-electron redox cycling of BAs in mouse liver microsomes (oxygen consumption rate); assay type: in vitro ADME; settings: NADPH- or NADH-dependent, 50 μM BA
T2 construct: Using human and mouse liver microsomes and either NADPH or NADH as cofactors; from tissue; host or cells: mouse liver microsomes
T2 sequence (P37040 1-678): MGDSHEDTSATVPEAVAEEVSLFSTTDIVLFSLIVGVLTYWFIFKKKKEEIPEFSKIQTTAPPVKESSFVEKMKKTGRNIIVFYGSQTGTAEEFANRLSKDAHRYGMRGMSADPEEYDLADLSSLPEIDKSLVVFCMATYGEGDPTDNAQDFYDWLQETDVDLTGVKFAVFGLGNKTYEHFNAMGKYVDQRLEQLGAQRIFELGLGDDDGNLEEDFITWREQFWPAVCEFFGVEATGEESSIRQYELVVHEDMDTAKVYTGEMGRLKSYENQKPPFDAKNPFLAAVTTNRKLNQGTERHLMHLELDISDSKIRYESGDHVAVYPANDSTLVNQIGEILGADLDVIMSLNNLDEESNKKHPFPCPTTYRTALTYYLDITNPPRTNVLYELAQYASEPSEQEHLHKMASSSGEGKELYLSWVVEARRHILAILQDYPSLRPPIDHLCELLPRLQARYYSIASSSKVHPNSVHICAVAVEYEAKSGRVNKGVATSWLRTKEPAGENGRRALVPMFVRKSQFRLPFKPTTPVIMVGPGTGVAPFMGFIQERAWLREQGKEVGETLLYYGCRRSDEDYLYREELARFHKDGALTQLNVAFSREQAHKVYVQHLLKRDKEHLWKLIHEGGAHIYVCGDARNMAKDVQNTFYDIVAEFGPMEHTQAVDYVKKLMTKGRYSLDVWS
Description: (§1) Using human and mouse liver microsomes and either NADPH or NADH as cofactors, the relative one-electron redox cycling rates of BAs mediated by NADPH-cytochrome P450 reductase were determined by measuring the rates of oxygen consumption. The rates of oxygen consumption and NAD(P)H oxidation were measured as indicators of the relative redox cycling rates of BAs. […] The oxygen consumption rate was measured using a Clark electrode (air tight) over 10 min.

[5] = target: T3, NADPH-cytochrome P450 reductase (human liver microsomes) (Homo sapiens, UniProt P16435); assay: One-electron redox cycling of BAs in human liver microsomes (oxygen consumption rate); assay type: in vitro ADME; settings: NADPH- or NADH-dependent, 50 μM BA
T3 construct: Using human and mouse liver microsomes and either NADPH or NADH as cofactors; from tissue; host or cells: human liver microsomes
T3 sequence (P16435 1-677): T1 sequence (P16435 1-677)
Description: as §1

[6] = 50 μM BA, 5 mM reduced glutathione, pH 7.4, room temperature

SMILES: C=CCNC1=C2C[C@@H](C)C[C@H](OC)[C@H](O)[C@@H](C)/C=C(\C)[C@H](OC(N)=O)[C@@H](OC)/C=C\C=C(/C)C(=O)NC(=CC1=O)C2=O [17AAG, 17-(allylamino)-17-demethoxygeldanamycin]
- hepatotoxicity rank within the BA series [1]: least hepatotoxic
- formation of glutathione conjugate (speed, in words) [2, 6]: very slow

SMILES: CO[C@H]1/C=C\C=C(/C)C(=O)NC2=CC(=O)C(NCCN3CCCC3)=C(C[C@@H](C)C[C@H](OC)[C@H](O)[C@@H](C)/C=C(\C)[C@@H]1OC(N)=O)C2=O [17AEP-GA, 17-demethoxy-17-[[2-(pyrrolidin-1-yl)ethyl]amino]-geldanamycin]
- relative rate of glutathione conjugate formation (rank order in the series) [2, 6]: GM>17DMAG>17AEP-GA>17AAG and 17AG
- fraction conjugated with glutathione ([2]; 50 μM BA, 5 mM reduced glutathione, pH 7.4, room temperature, within 10 h): about 90%

SMILES: CO[C@H]1/C=C\C=C(/C)C(=O)NC2=CC(=O)C(NCCN(C)C)=C(C[C@@H](C)C[C@H](OC)[C@H](O)[C@@H](C)/C=C(\C)[C@@H]1OC(N)=O)C2=O [17DMAG, 17-demthoxy-17-[[2-(dimethylamino)ethyl]amino]-geldanamycin]
- rate of redox cycling [3]: greatest rate
- 17DMAGH2-SG conjugate detection [2, 6]: not detected
- relative rate of glutathione conjugate formation (rank order in the series) [2, 6]: GM>17DMAG>17AEP-GA>17AAG and 17AG
- 17DMAG-SG conjugate formed ([2]; 50 μM BA, 5 mM reduced glutathione, pH 7.4, room temperature, within 4 h): approximately 47 μM

Continued, in another order:

- formation of glutathione conjugate (speed, in words) [2, 6]: very slow
- relative rate of glutathione conjugate formation (rank order in the series) [2, 6]: GM>17DMAG>17AEP-GA>17AAG and 17AG
SMILES: CO[C@H]1/C=C\C=C(/C)C(=O)NC2=CC(=O)C(N)=C(C[C@@H](C)C[C@H](OC)[C@H](O)[C@@H](C)/C=C(\C)[C@@H]1OC(N)=O)C2=O [17AG, 17-(amino)-17-demethoxygeldanamycin]

- relative rate of metabolism (one-electron redox cycling, oxygen consumption) [4]: relatively rapid rate
- relative rate of glutathione conjugate formation (rank order in the series) ([2]; 50 μM, pH 7.4): GM>17DMAG>17AEP-GA>17AAG and 17AG
- GMH2-SG conjugate formed ([2]; 5 min, 50 μM, pH 7.4): approximately 45 μM
- relative rate of metabolism (one-electron redox cycling, oxygen consumption) [5]: relatively rapid rate
SMILES: COC1=C2C[C@@H](C)C[C@H](OC)[C@H](O)[C@@H](C)/C=C(\C)[C@H](OC(N)=O)[C@@H](OC)/C=C\C=C(/C)C(=O)NC(=CC1=O)C2=O [GM, geldanamycin]
- hepatotoxicity ([1]; administration, Phase I clinical trials): unacceptable hepatotoxicity
- hepatotoxicity rank within the BA series [1]: most hepatotoxic
